We go through one compound from patent US20090005424A9, “Composition and Method for Treating Fibrotic Diseases” (priority 2005, published 2009).

Data set [1] relates to Kun Ming (KM) mice infected with Schistosoma miracidium. Briefly: Schistosomial liver fibrosis in Kun Ming mice, egg granuloma area and immunohistology. It is filed as in vivo. The conditions noted are these: for Schistosomo Egg Granuloma Area, Mean: all after Pyquiton 650 mg/kg 4 days, AKF-PD 500 mg/kg daily gavage, γ-interferon 50,000 unit daily i.m., 8 weeks. An excerpt: Kun Ming (KM) mice were infected with Schistosoma miracidium to induce schistosomial liver fibrosis. […] Ten Schistosoma miracidium were placed on shaved abdominal skin of each mouse for infection. […] Five hundred mg/kg AKF-PD were given daily by gavage to the disinfected mice of infected/AKF-PD group. The disinfected mice were given (i.m.) 50,000 unit γ-interferon daily. […] Drug or normal saline treatment was continued for 8 weeks. All mice were sacrificed one week after discontinue of drug treatment, and the left lobe of liver from each mouse was taken for pathological examination. Examination of HE-stained slices of liver tissue were carried out as follows. In general, after 16 weeks of Schistosoma miracidia infection, the area of schistosomo egg granuloma would directly correlate to the severity of liver fibrosis. Therefore, the area of schistosomo egg granuloma was measured using a high-resolution, color pathology graphic analyzer (HPIAS-1000). The sum of area of 5 granuloma with abundant eggs and the sum of area of 5 granuloma with few eggs were measured for each slice.

The next data set relates to fibroblast. Briefly: Inhibition of fibroblast, side-by-side comparison of substituents. The conditions noted are these: structural formula II, n=1. It is filed as cell-based.
Another data set relates to Kun Ming (KM) mice. Briefly: Acute oral toxicity in Kun Ming mice, LD50 by Bliss method. The conditions noted are these: mouse, in vivo. On the procedure: Male and female Kun Ming (KM) mice weighing between 18 g-22 g were acquired from the animal facility of Hsiang-Ya Medical College, the Central South University. Fifty Kun Ming mice were randomly assigned into 5 groups with 5 male and 5 female mice for each group. The animals went through fasting with a normal water supply before starting drug treatment (either AKF-PD or PIRFENIDONE). The drug was administrated orally by gavage. The volume of liquid drug was 20 ml/kg body weight. The range of dosage for AKF-PD administrated was from 1071 mg/kg to 6000 mg/kg. The dosage difference between two adjacent doses was 1:0.65 (a dose vs the next lower dose). All animals were maintained under a regular condition. Acute toxic reaction and death within 14 days of post drug treatment were recorded. Autopsy was performed on all dead animals and visual examination was performed on all organs.
LD50 was calculated according to Bliss method. […] The results of Table 15 are very close to those reported in the literature: 997.7 mg/kg (U.S. Pat. No. 5,310,562) and 1112 mg/kg(Pharmaceutical Care and Research 5:4823(2005)).

Data set [2] concerns TGF-β production and type I & III collagen accumulation in rat UUO model. Briefly: Rat UUO model, immunohistochemistry of TGF-β and type I & III collagen. It is filed as in vivo. The conditions noted are these: kidney of UUO rats. On the procedure: Similar to the example 8, Kidney fibrosis was induced by Unilateral Ureteral Obstruction. And the animal experiments were performed to investigate whether AKF-PD has any effect on TGF-β production and collagen accumulation. These are two known factors for fibrotic lesion.
As shown by FIG. 1, sections A-C were immunohistochemically stained with specific antibody against TGF-β with brown color indicating TGF-β protein expression in kidney cells. All sections were also counterstained lightly with hematoxylin for viewing non-TGF-β stained cells.
Also shown by FIG. 2, type I and III collagen were analyzed by immunohistochemistry. The typical fibrotic fiber was viewed as brown color. There are a […] accumulation of both type I (B) and type III (E) collagen on the fibrotic kidney of UUO model. […] Reduced collagen level can be interpreted as the reduced ECM.

The mark [3] stands for this setting: compared with pyquiton and Interferon-γ treated.

For the compound `Cc1ccc(=O)n(-c2cccc(F)c2)c1` [AKF-PD, 1-(3′-fluorophenyl)-5-methyl-2(1H)-pyridone], in data set [1] (setting [3]), the “fibrotic nodule (immunohistological staining, FIG. 3)” value is “much reduced fibrotic nodule” and the “type I collagen accumulation (immunohistological staining, FIG. 4)” value is recorded as “much less type I collagen accumulation”. For the same compound, the “Schistosomo Egg Granuloma Area, Mean” value in data set [1] (granuloma with abundant eggs) is 80155.11 μm^2. Further, the “Schistosomo Egg Granuloma Area, Mean” value in data set [1] (granuloma with few eggs) turned out to be 30266.68 μm^2. Also, the activity inhibiting fibroblast result in the data set on fibroblast is recorded as “activities inhibiting fibroblast”. In addition, in the data set on Kun Ming (KM) mice (both, Kun Ming (KM), 14 days), the “LD50 as percent of that of PIRFENIDONE” value is recorded as 30%. Further, the “LD50 95% confidence limit” value in the data set on Kun Ming (KM) mice (both, Kun Ming (KM), po, 14 days) was “(2402.70 − 3695.73) mg/kg”. The “toxicity relative to that of PIRFENIDONE” value with Kun Ming (KM) mice is given as “one third”. In data set [2], the “TGF-β production (immunohistochemistry, FIG. 1)” value is “significantly reduced TGF-β production”; the “type I and III collagen accumulation or production (immunohistochemistry, FIG. 2)” value was “significantly blocks type I and III collagen accumulation or production”.
